From patent publication US12497406B2, “Microbiocidal derivatives” (SYNGENTA CROP PROTECTION AG, priority 2019, dated 2025) come the findings set out here.

For assay [1], the system named is Monographella nivalis (Microdochium nivale). Put plainly: Monographella nivalis (Microdochium nivale) / liquid culture (foot rot cereals). The following applies: liquid culture (PDB), growth inhibition photometrically 4-5 days after application, compared to untreated control. Format: cell-based. The procedure:
Example B6. Monographella nivalis (Microdochium nivale)/Liquid Culture (Foot Rot Cereals) Conidia of the fungus from cryogenic storage are directly mixed into nutrient broth (PDB potato dextrose broth). After placing a (DMSO) solution of test compound into a microtiter plate (96-well format), the nutrient broth containing the fungal spores is added. The test plates are incubated at 24° C. and the inhibition of growth is determined photometrically 4-5 days after application. […] […]-25, and P-26.

For another assay, the system named is Pyrenophora teres. Put plainly: Pyrenophora teres / barley / leaf disc preventative (net blotch). The assay is classed as in vivo. The note with it: foliar, barley leaf segments cv. Hasso, inoculated 2 days after application, compared to untreated control. The method, then: Example B10. Pyrenophora teres/Barley/Leaf Disc Preventative (Net Blotch) Barley leaf segments cv. Hasso are placed on agar in a multiwell plate (24-well format) and sprayed with the formulated test compound diluted in water. The leaf segments are inoculated with a spore suspension of the fungus 2 days after application. The inoculated leaf segments are incubated at 20° C. and 65% rh under a light regime of 12 h light/12 h darkness in a climate cabinet and the activity of a compound is assessed as disease control compared to untreated when an appropriate level of disease damage appears in untreated check leaf segments (5-7 days after application). […] […]-25, and P-26.

Assay [2] deals with Puccinia recondita f. sp. tritici. Put plainly: Puccinia recondita f. sp. tritici / wheat / leaf disc preventative (brown rust). The assay is classed as in vivo. The following applies: foliar, wheat leaf segments cv. Kanzler, inoculated 1 day after application, compared to untreated control. The method, then: Example B8. Puccinia recondita f. Sp. tritici/Wheat/Leaf Disc Preventative (Brown Rust) Wheat leaf segments cv. Kanzler are placed on agar in multiwell plates (24-well format) and sprayed with the formulated test compound diluted in water. The leaf disks are inoculated with a spore suspension of the fungus 1 day after application. The inoculated leaf segments are incubated at 19° C. and 75% rh under a light regime of 12 h light/12 h darkness in a climate cabinet and the activity of a compound is assessed as percent disease control compared to untreated when an appropriate level of disease damage appears in untreated check leaf segments (7-9 days after application). […] […]-25, and P-26.

For assay [3], the system named is Mycosphaerella graminicola (Septoria tritici). Put plainly: Mycosphaerella graminicola (Septoria tritici) / liquid culture (Septoria blotch). The assay is classed as cell-based. The following applies: Zymoseptoria tritici, liquid culture (PDB), growth inhibition photometrically 4-5 days after application, compared to untreated control. The method, then:
Example B11. Mycosphaerella graminicola (Septoria tritici)/Liquid Culture (Septoria Blotch) Conidia of the fungus from cryogenic storage are directly mixed into nutrient broth (PDB potato dextrose broth). After placing a (DMSO) solution of test compound into a microtiter plate (96-well format), the nutrient broth containing the fungal spores is added. The test plates are incubated at 24° C. and the inhibition of growth is determined photometrically 4-5 days after application.

Assay [4] has as its system Magnaporthe grisea (Pyricularia oryzae). The assay can be described thus: whole plant or invertebrate. Format: in vivo. The note with it: foliar, read-out: control of Magnaporthe grisea.
Assay [5] has as its system Glomerella lagenarium (Colletotrichum lagenarium). Put plainly: Glomerella lagenarium (Colletotrichum lagenarium) / liquid culture (anthracnose). The following applies: Colletotrichum orbiculare, liquid culture (PDB), growth inhibition photometrically 3-4 days after application, compared to untreated control. The assay is classed as cell-based. The procedure:
Example B3. Glomerella lagenarium (Colletotrichum lagenarium)/Liquid Culture (Anthracnose) Conidia of the fungus from cryogenic storage are directly mixed into nutrient broth (PDB potato dextrose broth). After placing a (DMSO) solution of test compound into a microtiter plate (96-well format), the nutrient broth containing the fungal spores is added. The test plates are incubated at 24° C. and the inhibition of growth is measured photometrically 3-4 days after application. […] […]-25, and P-26.

For a further assay, the system named is Alternaria solani. The assay can be described thus: Alternaria solani / tomato / leaf disc (early blight). Format: in vivo. The note with it: foliar, tomato leaf disks cv. Baby, inoculated 2 days after application, compared to untreated control. The method, then: Example B1. Alternaria solani/Tomato/Leaf Disc (Early Blight) Tomato leaf disks cv. Baby are placed on agar in multiwell plates (24-well format) and sprayed with the formulated test compound diluted in water. The leaf disks are inoculated with a spore suspension of the fungus 2 days after application. The inoculated leaf disks are incubated at 23° C./21° C. […] […]-24, and P-25.

The subject of assay [6] is Mycosphaerella arachidis (Cercospora arachidicola). Put plainly: Mycosphaerella arachidis (Cercospora arachidicola) / liquid culture (early leaf spot). The assay is classed as cell-based. The note with it: liquid culture (PDB), growth inhibition photometrically 4-5 days after application, compared to untreated control. The method, then:
Example B7. Mycosphaerella arachidis (Cercospora arachidicola)/Liquid Culture (Early Leaf Spot) Conidia of the fungus from cryogenic storage are directly mixed into nutrient broth (PDB potato dextrose broth). After placing a (DMSO) solution of test compound into a microtiter plate (96-well format), the nutrient broth containing the fungal spores is added. The test plates are incubated at 24° C. and the inhibition of growth is determined photometrically 4-5 days after application. […] […]-22, and P-25.

Assay [7] deals with Botryotinia fuckeliana (Botrytis cinerea). Put plainly: Botryotinia fuckeliana (Botrytis cinerea) / liquid culture (gray mould). Format: cell-based. The note with it: 20 ppm; liquid culture (Vogels broth), growth inhibition photometrically 3-4 days after application; compared to untreated control. The method, then: Example B2. Botryotinia fuckeliana (Botrytis cinerea)/Liquid Culture (Gray Mould) Conidia of the fungus from cryogenic storage are directly mixed into nutrient broth (Vogels broth). After placing a (DMSO) solution of test compound into a microtiter plate (96-well format), the nutrient broth containing the fungal spores is added. The test plates are incubated at 24° C. and the inhibition of growth is determined photometrically 3-4 days after application. […] P-22.

A value given as a limit tells only on which side of the number the result lay.

In general, inhibition of growth refers to the drop in the measured response relative to a control, in per cent.

On to `CC1(NC(=O)c2nc(Nc3cc(F)cc(F)c3)cc3c2OCO3)CCCC1` [Compound P-25, 6-(3,5-difluoroanilino)-N-(1-methylcyclopentyl)-[1,3]dioxolo[4,5-c]pyridine-4-carboxamide], for which the inhibition of growth at 20 ppm in assay [1], in assay [3], in assay [5] and in assay [6] was at least 80% in each case. The pest or weed control at 200 ppm (in the assay on Pyrenophora teres; in assay [2]; in [4]; in the assay with Alternaria solani) was at least 80% each time.
Consider `CCC(C)(C)NC(=O)c1nc(Nc2cc(F)cc(F)c2)cc2c1OCO2` [Compound P-18, 6-(3,5-difluoroanilino)-N-(1,1-dimethylpropyl)-[1,3]dioxolo[4,5-c]pyridine-4-carboxamide], for which the inhibition of growth at 20 ppm in assay [1], in assay [3], in [5] and in assay [6] was at least 80% throughout. The pest or weed control at 200 ppm (in the assay on Pyrenophora teres; in assay [2]; in assay [4]) was at least 80% throughout.
Turning to `CC1(C)CCC1NC(=O)c1nc(Nc2cc(F)cc(F)c2)cc2c1OCO2` (centres unmarked) [Compound P-11, 6-(3,5-difluoroanilino)-N-(2,2-dimethylcyclobutyl)-[1,3]dioxolo[4,5-c]pyridine-4-carboxamide], the inhibition of growth at 20 ppm in assay [1], in assay [3], in assay [5] and in [6] was at least 80% in each case. In addition, in [2], the pest or weed control at 200 ppm is at least 80%.
Consider `CC1(NC(=O)c2nc(Nc3cc(F)cc(F)c3)cc3c2OCO3)CCC1` [Compound P-22, 6-(3,5-difluoroanilino)-N-(1-methylcyclobutyl)-[1,3]dioxolo[4,5-c]pyridine-4-carboxamide], for which the inhibition of growth at 20 ppm in assay [1], in assay [3], in assay [5] and in assay [6] was at least 80% throughout. The pest or weed control at 200 ppm (with Pyrenophora teres; in [2]; in assay [4]; in the assay on Alternaria solani) was at least 80% each time. Moreover, the “control of Botryotinia fuckeliana” value in assay [7] is “at least 80%”.
For the compound `CC1(C)CCC1NC(=O)c1nc(Nc2cccc(F)c2)cc2c1OCO2` (centres unmarked) [Compound P-8, N-(2,2-dimethylcyclobutyl)-6-(3-fluoroanilino)-[1,3]dioxolo[4,5-c]pyridine-4-carboxamide], the inhibition of growth at 20 ppm in assay [1], in assay [3], in [5] and in [6] was at least 80% each time. The pest or weed control at 200 ppm (with Pyrenophora teres; in assay [2]; in the assay with Alternaria solani) was at least 80% in each case.
For the compound `CC(C)(C)NC(=O)c1nc(Nc2cc(F)cc(F)c2)cc2c1OCO2` [Compound P-21, N-tert-butyl-6-(3,5-difluoroanilino)-[1,3]dioxolo[4,5-c]pyridine-4-carboxamide], the inhibition of growth at 20 ppm in assay [1], in assay [3], in assay [5] and in [6] was at least 80% each time. Also, the pest or weed control at 200 ppm (with Pyrenophora teres; in [2]; in assay [4]; in the assay on Alternaria solani) was at least 80% each time.
